According to ChEMBL document CHEMBL5113453, “Design, synthesis, and biological evaluation of a new series of pyrazole derivatives: Discovery of potent and selective JNK3 kinase inhibitors” (Bioorg Med Chem, 2022):

Legend:
HL-60(TB) = test: Antiproliferative activity against human HL-60(TB) cells measured after 48 hrs by SRB assay; assay type: functional, cell-based; details: for IC50: HL-60, 48 h; for TGI: HL-60, time 48 hrs
EKVX = test: Antiproliferative activity against human EKVX cells measured after 48 hrs by SRB assay; assay type: functional, cell-based; details: for IC50: 48 h; for TGI: time 48 hrs
NCI-H322M = test: Antiproliferative activity against human NCI-H322M cells measured after 48 hrs by SRB assay; assay type: functional, cell-based; details: for IC50: 48 h; for TGI: time 48 hrs
NCI-H460 = test: Antiproliferative activity against human NCI-H460 cells measured after 48 hrs by SRB assay; assay type: functional, cell-based; details: for IC50: NCI-H460, 48 h; for TGI: NCI-H460, time 48 hrs
COLO 205 = test: Antiproliferative activity against human COLO 205 cells measured after 48 hrs by SRB assay; assay type: functional, cell-based; details: for IC50: COLO 205, 48 h; for TGI: COLO 205, time 48 hrs
SF-295 = test: Antiproliferative activity against human SF-295 cells measured after 48 hrs by SRB assay; assay type: functional, cell-based; details: for IC50: SF-295, 48 h; for TGI: SF-295, time 48 hrs
SNB-19 = test: Antiproliferative activity against human SNB-19 cells measured after 48 hrs by SRB assay; assay type: functional, cell-based; details: for IC50: SNB-19, 48 h; for TGI: SNB-19, time 48 hrs
U-251 = test: Antiproliferative activity against human U-251 cells measured after 48 hrs by SRB assay; assay type: functional, cell-based; details: for IC50: U-251, 48 h; for TGI: U-251, time 48 hrs
M14 = test: Antiproliferative activity against human M14 cells measured after 48 hrs by SRB assay; assay type: functional, cell-based; details: for IC50: M14, 48 h; for TGI: M14, time 48 hrs
MDA-MB-435 = test: Antiproliferative activity against human MDA-MB-435 cells measured after 48 hrs by SRB assay; assay type: functional, cell-based; details: for IC50: MDA-MB-435, 48 h; for TGI: MDA-MB-435, time 48 hrs
SK-MEL-5 = test: Antiproliferative activity against human SK-MEL-5 cells measured after 48 hrs by SRB assay; assay type: functional, cell-based; details: for IC50: SK-MEL-5, 48 h; for TGI: SK-MEL-5, time 48 hrs
UACC-257 = test: Antiproliferative activity against human UACC-257 cells measured after 48 hrs by SRB assay; assay type: functional, cell-based; details: for IC50: UACC-257, 48 h; for TGI: UACC-257, time 48 hrs
IGROV-1 = test: Antiproliferative activity against human IGROV-1 cells measured after 48 hrs by SRB assay; assay type: functional, cell-based; details: for IC50: IGROV-1, 48 h; for TGI: IGROV-1, time 48 hrs
SK-OV-3 = test: Antiproliferative activity against human SK-OV-3 cells measured after 48 hrs by SRB assay; assay type: functional, cell-based; details: for IC50: SK-OV-3, 48 h; for TGI: SK-OV-3, time 48 hrs
786-0 = test: Antiproliferative activity against human 786-0 cells measured after 48 hrs by SRB assay; assay type: functional, cell-based; details: for IC50: 786-0, 48 h; for TGI: 786-0, time 48 hrs
CAKI-1 = test: Antiproliferative activity against human CAKI-1 cells measured after 48 hrs by SRB assay; assay type: functional, cell-based; details: for IC50: CAKI-1, 48 h; for TGI: CAKI-1, time 48 hrs
TK-10 = test: Antiproliferative activity against human TK-10 cells measured after 48 hrs by SRB assay; assay type: functional, cell-based; details: for IC50: TK-10, 48 h; for TGI: TK-10, time 48 hrs
MCF7 = test: Antiproliferative activity against human MCF7 cells measured after 48 hrs by SRB assay; assay type: functional, cell-based; details: for IC50: MCF7, 48 h; for TGI: MCF7, time 48 hrs
MDA-MB-231 = test: Antiproliferative activity against human MDA-MB-231 cells measured after 48 hrs by SRB assay; assay type: functional, cell-based; details: for IC50: MDA-MB-231, 48 h; for TGI: MDA-MB-231, time 48 hrs
Hs-578T = test: Antiproliferative activity against human Hs-578T cells measured after 48 hrs by SRB assay; assay type: functional, cell-based; details: for IC50: 48 h; for TGI: time 48 hrs
BT-549 = test: Antiproliferative activity against human BT-549 cells measured after 48 hrs by SRB assay; assay type: functional, cell-based; details: for IC50: BT-549, 48 h; for TGI: BT-549, time 48 hrs
T47D = test: Antiproliferative activity against human T47D cells measured after 48 hrs by SRB assay; assay type: functional, cell-based; details: for IC50: 48 h; for TGI: time 48 hrs
HepG2 = test: Antiproliferative activity against human HepG2 cells measured by MTT assay; assay type: functional, cell-based
Hep 3B2 = test: Antiproliferative activity against human Hep3B cells measured by MTT assay; assay type: functional, cell-based
RPMI-8226 [1] = test: Induction of apoptosis in human RPMI-8226 cells assessed as fold increase in caspase-3/7 activity at 0.73 uM; assay type: functional
RPMI-8226 [2] = test: Induction of apoptosis in human RPMI-8226 cells assessed as fold increase in caspase-3/7 activity at 6.12 uM; assay type: functional
RPMI-8226 [3] = test: Induction of necrosis in human RPMI-8226 cells assessed as LDH release at 0.73 uM; assay type: functional
RPMI-8226 [4] = test: Induction of necrosis in human RPMI-8226 cells assessed as LDH release at 6.12 uM; assay type: functional
[5] = target: Mitogen-activated protein kinase 10 (Homo sapiens, UniProt P53779); test: Inhibition of JNK3 (unknown origin)
Mitogen-activated protein kinase 10, sequence (P53779 whole entry): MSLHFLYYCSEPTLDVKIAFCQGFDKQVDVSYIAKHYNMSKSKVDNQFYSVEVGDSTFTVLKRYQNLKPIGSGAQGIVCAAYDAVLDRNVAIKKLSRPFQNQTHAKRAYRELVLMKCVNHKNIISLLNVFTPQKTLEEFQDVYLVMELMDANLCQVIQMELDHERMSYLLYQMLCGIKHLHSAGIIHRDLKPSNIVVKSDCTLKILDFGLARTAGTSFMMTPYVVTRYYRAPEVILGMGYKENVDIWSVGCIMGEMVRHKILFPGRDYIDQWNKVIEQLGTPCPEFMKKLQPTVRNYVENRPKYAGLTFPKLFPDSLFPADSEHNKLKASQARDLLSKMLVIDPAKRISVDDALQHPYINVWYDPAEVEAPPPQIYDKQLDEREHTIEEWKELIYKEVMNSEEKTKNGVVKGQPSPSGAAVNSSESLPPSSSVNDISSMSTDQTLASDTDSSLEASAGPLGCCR

O=C(NCCCNc1cc(-c2cn(-c3ccccc3)nc2-c2cccc(O)c2)ccn1)Nc1cccc(C(F)(F)F)c1
IC50 (HL-60(TB)): 3.42 µM | TGI (HL-60(TB)): 14.5 µM | IC50 (EKVX): 3.5 µM | TGI (EKVX): 8.45 µM | IC50 (NCI-H322M): 4.24 µM | TGI (NCI-H322M): 9.32 µM | IC50 (NCI-H460): 3.48 µM | TGI (NCI-H460): 8.89 µM | IC50 (COLO 205): 2.97 µM | TGI (COLO 205): 8.72 µM | IC50 (SF-295): 1.76 µM | TGI (SF-295): 6.42 µM | IC50 (SNB-19): 3.99 µM | TGI (SNB-19): 8.97 µM | IC50 (U-251): 2.57 µM | TGI (U-251): 7.45 µM | IC50 (M14): 2.18 µM | TGI (M14): 6.98 µM | IC50 (MDA-MB-435): 3.41 µM | TGI (MDA-MB-435): 7.57 µM | IC50 (SK-MEL-5): 3.25 µM | TGI (SK-MEL-5): 7.17 µM | IC50 (UACC-257): 4.8 µM | TGI (UACC-257): 10.1 µM | IC50 (IGROV-1): 2.83 µM | TGI (IGROV-1): 7.98 µM | IC50 (SK-OV-3): 4.49 µM | TGI (SK-OV-3): 10.1 µM | IC50 (786-0): 1.07 µM | TGI (786-0): 3.71 µM | IC50 (CAKI-1): 1.9 µM | TGI (CAKI-1): 12.3 µM | IC50 (TK-10): 5.75 µM | TGI (TK-10): 13.2 µM | IC50 (MCF7): 2.73 µM | TGI (MCF7): 9.39 µM | IC50 (MDA-MB-231): 2.85 µM | TGI (MDA-MB-231): 7.76 µM | IC50 (Hs-578T): 1.34 µM | TGI (Hs-578T): 7.74 µM | IC50 (BT-549): 3.26 µM | TGI (BT-549): 7.63 µM | IC50 (T47D): 3.42 µM | TGI (T47D): 16.7 µM | IC50 (HepG2): 6.42 µM | IC50 (Hep 3B2): 4.9 µM | fold change (FC) (RPMI-8226 [1]): 1.96 | fold change (FC) (RPMI-8226 [2]): 2.83 | Activity (RPMI-8226 [3]): 6.7% | Activity (RPMI-8226 [4]): 34.5% | IC50 [5]: 0.474 µM

COc1cccc(-c2nn(-c3ccccc3)cc2-c2ccnc(NCCCNC(=O)Nc3ccc(F)cc3)c2)c1
IC50 (HL-60(TB)): 3.77 µM | TGI (HL-60(TB)): 13.7 µM | IC50 (EKVX): 9.63 µM | TGI (EKVX): > 37 µM | IC50 (NCI-H322M): 9.58 µM | TGI (NCI-H322M): > 37 µM | IC50 (NCI-H460): 6.54 µM | TGI (NCI-H460): 17.1 µM | IC50 (COLO 205): 8.17 µM | TGI (COLO 205): 29.3 µM | IC50 (SF-295): 7.16 µM | TGI (SF-295): 21.7 µM | IC50 (SNB-19): 12.1 µM | TGI (SNB-19): > 37 µM | IC50 (U-251): 9.84 µM | TGI (U-251): > 37 µM | IC50 (M14): 6.71 µM | TGI (M14): 19 µM | IC50 (MDA-MB-435): 5.61 µM | TGI (MDA-MB-435): 12.8 µM | IC50 (SK-MEL-5): 5.64 µM | TGI (SK-MEL-5): 10.8 µM | IC50 (UACC-257): 7.05 µM | TGI (UACC-257): 16.9 µM | IC50 (IGROV-1): 9.34 µM | TGI (IGROV-1): > 37 µM | IC50 (SK-OV-3): 10.8 µM | TGI (SK-OV-3): > 37 µM | IC50 (786-0): 9.34 µM | TGI (786-0): > 37 µM | IC50 (CAKI-1): 8.63 µM | TGI (CAKI-1): > 37 µM | IC50 (TK-10): 21.2 µM | TGI (TK-10): > 37 µM | IC50 (MCF7): 7.17 µM | TGI (MCF7): 18 µM | IC50 (MDA-MB-231): 7.84 µM | TGI (MDA-MB-231): 23 µM | IC50 (Hs-578T): 6.24 µM | TGI (Hs-578T): 17.9 µM | IC50 (BT-549): 6.24 µM | TGI (BT-549): 20.3 µM | IC50 (T47D): 7.95 µM | TGI (T47D): > 37 µM | IC50 [5]: > 1 µM
